Data: US9708318B2, “Bicyclic heterocycles as FGFR4 inhibitors” (Incyte Corporation, priority 2015, dated 2017)
pIC50: −log10 of the molar value. Read-outs that look alike come from different tables or passages of the source.

What was measured:
FGFR3 enzyme = FGFR3 enzyme (Homo sapiens (Human), UniProt P22607); experiment: FGFR Enzymatic Assay (FRET peptide phosphorylation), FGFR3; type: biochemical; conditions: for FGFR1/FGFR3 IC50 ratio / FGFR4/FGFR3 IC50 ratio: FGFR3 selectivity; for pIC50: read-out: FGFR3 IC50
Experimental: (§1) The inhibitor potency of the exemplified compounds was measured in an enzyme assay that measures peptide phosphorylation using FRET measurements to detect product formation. Inhibitors were serially diluted in DMSO and a volume of 0.5 μL was transferred to the wells of a 384-well plate.
(§2) GraphPad prism3 was used to analyze the data.

FGFR1 = FGFR1 (Homo sapiens (Human), UniProt P11362); experiment: FGFR Enzymatic Assay (FRET peptide phosphorylation), FGFR1; conditions: for IC50: FGFR1 IC50 (nM); for pIC50: read-out: FGFR1 IC50
FGFR4 = FGFR4 (Homo sapiens (Human), UniProt P22455); experiment: FGFR Enzymatic Assay (FRET peptide phosphorylation), FGFR4; type: biochemical; conditions: for FGFR1/FGFR4 IC50 ratio / FGFR2/FGFR4 IC50 ratio / FGFR3/FGFR4 IC50 ratio: FGFR4 selectivity
Experimental: as §1
(§3) The enzymes were purchased from Millipore or Invitrogen.
as §2

FGFR2 = FGFR2 (Homo sapiens (Human), UniProt P21802); experiment: FGFR Enzymatic Assay (FRET peptide phosphorylation), FGFR2; type: biochemical
Experimental: as §1, §3, §2

[1] = pre-incubated for 5 to 10 minutes

Sequence of FGFR1 (P11362 22-822): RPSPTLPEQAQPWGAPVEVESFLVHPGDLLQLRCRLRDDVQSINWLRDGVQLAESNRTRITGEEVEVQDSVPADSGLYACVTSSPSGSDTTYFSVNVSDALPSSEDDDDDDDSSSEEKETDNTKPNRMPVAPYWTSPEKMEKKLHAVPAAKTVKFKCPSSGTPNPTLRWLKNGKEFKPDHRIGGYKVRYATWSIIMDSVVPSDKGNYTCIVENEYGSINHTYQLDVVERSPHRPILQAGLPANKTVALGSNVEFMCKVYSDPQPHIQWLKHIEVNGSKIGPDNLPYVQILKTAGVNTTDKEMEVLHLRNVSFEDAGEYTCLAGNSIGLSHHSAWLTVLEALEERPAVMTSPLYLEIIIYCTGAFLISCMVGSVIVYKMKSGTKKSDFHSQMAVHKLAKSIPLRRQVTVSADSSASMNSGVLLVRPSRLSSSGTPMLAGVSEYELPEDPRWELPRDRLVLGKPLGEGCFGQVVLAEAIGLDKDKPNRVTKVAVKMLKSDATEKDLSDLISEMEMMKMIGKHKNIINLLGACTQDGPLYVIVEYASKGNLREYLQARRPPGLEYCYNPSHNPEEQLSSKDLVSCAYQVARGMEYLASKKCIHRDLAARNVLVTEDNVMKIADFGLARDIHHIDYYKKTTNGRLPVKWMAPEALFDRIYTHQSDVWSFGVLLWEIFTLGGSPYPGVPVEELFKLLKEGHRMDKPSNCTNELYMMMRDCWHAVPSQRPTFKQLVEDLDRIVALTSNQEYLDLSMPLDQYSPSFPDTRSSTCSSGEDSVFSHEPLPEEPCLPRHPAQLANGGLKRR
Sequence of FGFR2 (P21802 22-821): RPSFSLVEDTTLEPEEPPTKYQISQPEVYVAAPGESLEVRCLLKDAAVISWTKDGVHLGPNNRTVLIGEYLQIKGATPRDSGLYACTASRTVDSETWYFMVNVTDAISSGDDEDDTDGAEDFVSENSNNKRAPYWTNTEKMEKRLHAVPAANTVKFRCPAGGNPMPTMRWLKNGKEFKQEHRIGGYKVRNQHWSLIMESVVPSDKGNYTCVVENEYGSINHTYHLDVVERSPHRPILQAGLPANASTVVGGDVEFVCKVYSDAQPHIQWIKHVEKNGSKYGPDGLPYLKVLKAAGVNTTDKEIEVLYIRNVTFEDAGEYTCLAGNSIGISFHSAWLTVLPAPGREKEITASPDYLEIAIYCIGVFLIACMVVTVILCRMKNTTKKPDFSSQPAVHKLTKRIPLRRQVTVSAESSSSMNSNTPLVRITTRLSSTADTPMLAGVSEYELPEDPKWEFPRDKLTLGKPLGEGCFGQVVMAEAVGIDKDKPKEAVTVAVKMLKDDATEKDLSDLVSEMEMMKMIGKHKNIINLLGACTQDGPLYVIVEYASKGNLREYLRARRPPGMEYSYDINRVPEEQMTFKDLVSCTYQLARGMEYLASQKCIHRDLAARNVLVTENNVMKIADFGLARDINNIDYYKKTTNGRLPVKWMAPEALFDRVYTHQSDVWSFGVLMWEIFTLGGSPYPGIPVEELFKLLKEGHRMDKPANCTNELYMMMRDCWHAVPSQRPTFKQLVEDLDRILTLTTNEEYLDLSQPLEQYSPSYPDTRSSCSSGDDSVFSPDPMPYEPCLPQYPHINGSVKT
Sequence of FGFR3 enzyme (P22607 23-806): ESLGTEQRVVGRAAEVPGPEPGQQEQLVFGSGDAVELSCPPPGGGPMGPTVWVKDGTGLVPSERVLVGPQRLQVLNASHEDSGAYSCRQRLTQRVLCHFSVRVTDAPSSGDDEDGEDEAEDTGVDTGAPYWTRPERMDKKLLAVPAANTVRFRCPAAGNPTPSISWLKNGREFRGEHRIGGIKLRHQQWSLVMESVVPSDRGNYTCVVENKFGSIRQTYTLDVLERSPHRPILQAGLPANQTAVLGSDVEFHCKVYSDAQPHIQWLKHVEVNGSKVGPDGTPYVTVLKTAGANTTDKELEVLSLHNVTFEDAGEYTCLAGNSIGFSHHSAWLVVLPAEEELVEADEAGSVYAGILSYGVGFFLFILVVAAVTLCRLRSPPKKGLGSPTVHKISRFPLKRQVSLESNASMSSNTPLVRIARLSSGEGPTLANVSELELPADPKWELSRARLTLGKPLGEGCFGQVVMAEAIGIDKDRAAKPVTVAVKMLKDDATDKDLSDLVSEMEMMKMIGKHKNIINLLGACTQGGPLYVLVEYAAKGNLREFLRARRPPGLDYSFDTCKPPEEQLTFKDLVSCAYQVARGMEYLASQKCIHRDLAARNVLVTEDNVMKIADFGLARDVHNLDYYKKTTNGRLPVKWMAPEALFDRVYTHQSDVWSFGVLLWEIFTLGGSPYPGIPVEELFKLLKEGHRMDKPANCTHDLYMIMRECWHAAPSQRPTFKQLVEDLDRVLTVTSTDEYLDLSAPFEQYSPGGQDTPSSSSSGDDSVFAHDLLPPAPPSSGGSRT
Sequence of FGFR4 (P22455 22-802): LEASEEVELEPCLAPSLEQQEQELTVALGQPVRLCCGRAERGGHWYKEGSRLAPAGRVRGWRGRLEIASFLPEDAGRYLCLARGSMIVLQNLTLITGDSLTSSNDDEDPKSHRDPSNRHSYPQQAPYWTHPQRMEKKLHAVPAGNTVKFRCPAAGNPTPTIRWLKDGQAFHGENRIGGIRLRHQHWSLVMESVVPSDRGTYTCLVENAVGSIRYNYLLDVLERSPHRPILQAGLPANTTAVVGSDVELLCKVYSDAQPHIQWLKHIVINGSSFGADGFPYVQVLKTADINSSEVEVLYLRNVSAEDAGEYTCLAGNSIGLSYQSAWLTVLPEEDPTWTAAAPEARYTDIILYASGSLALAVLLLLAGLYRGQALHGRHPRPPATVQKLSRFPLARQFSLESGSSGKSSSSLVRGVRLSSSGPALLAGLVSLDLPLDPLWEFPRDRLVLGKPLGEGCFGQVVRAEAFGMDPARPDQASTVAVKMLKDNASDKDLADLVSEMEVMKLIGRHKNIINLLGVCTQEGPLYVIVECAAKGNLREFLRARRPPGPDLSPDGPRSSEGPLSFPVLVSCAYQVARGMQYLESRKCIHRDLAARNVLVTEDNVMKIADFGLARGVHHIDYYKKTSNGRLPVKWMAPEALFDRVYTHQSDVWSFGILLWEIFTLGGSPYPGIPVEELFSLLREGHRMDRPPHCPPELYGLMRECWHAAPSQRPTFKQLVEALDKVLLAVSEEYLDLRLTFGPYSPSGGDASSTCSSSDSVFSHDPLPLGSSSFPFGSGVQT

COc1cc(OC)c(F)c(N2Cc3cnc(-c4cn(C)nc4C)cc3N(c3ccc(S(C)(=O)=O)cc3)C2=O)c1F [Example 98, 3-(2,6-difluoro-3,5-dimethoxyphenyl)-7-(1,3-dimethyl-1H-pyrazol-4-yl)-1-(4-(methylsulfonyl)phenyl)-3,4-dihydropyrido[4,3-d]pyrimidin-2(1H)-one]
FGFR1/FGFR3 IC50 ratio (FGFR3 enzyme; pre-incubated for 4 hours): >5
FGFR4/FGFR3 IC50 ratio (FGFR3 enzyme; pre-incubated for 4 hours): >10
pIC50 (FGFR3 enzyme; pre-incubated for 4 hours): 7.52 to 8.00
IC50 (FGFR1; pre-incubated for 4 hours): 30 to 200 nM
pIC50 (FGFR4; pre-incubated for 4 hours): 6.70 to 7.52
pIC50 (FGFR2; pre-incubated for 4 hours): 7.52 to 8.00

COc1cc(OC)c(F)c(N2Cc3cnc(-c4cn(Cc5cccnc5)nc4C)cc3C3(CC3)C2=O)c1F [Example 155, 2′-(2,6-difluoro-3,5-dimethoxyphenyl)-6′-(3-methyl-1-(pyridin-3-ylmethyl)-1H-pyrazol-4-yl)-1′H-spiro[cyclopropane-1,4′-[2,7]naphthyridin]-3′(2′H)-one]
FGFR1/FGFR3 IC50 ratio (FGFR3 enzyme; pre-incubated for 4 hours): >5
FGFR4/FGFR3 IC50 ratio (FGFR3 enzyme; pre-incubated for 4 hours): >1
pIC50 (FGFR3 enzyme; pre-incubated for 4 hours): 7.52 to 8.00
IC50 (FGFR1; pre-incubated for 4 hours): 30 to 200 nM
pIC50 (FGFR4; pre-incubated for 4 hours): 6.70 to 7.52
pIC50 (FGFR2; pre-incubated for 4 hours): 6.70 to 7.52

COc1cc(OC)c(F)c(N2Cc3cnc(-c4cn(C)nc4C)cc3N(c3cncnc3)C2=O)c1F [Example 61, 3-(2,6-difluoro-3,5-dimethoxyphenyl)-7-(1,3-dimethyl-1H-pyrazol-4-yl)-1-(pyrimidin-5-yl)-3,4-dihydropyrido[4,3-d]pyrimidin-2(1H)-one]
FGFR1/FGFR3 IC50 ratio (FGFR3 enzyme; pre-incubated for 4 hours): >10
FGFR4/FGFR3 IC50 ratio (FGFR3 enzyme; pre-incubated for 4 hours): >5
pIC50 (FGFR3 enzyme; pre-incubated for 4 hours): 7.52 to 8.00
pIC50 (FGFR1; pre-incubated for 4 hours): < 6.70
pIC50 (FGFR4; pre-incubated for 4 hours): < 6.70
pIC50 (FGFR2; pre-incubated for 4 hours): 6.70 to 7.52

COc1cc(OC)c(F)c(N2Cc3cnc(-c4cn(C5CCS(=O)(=O)C5)nc4C)cc3C3(CC3)C2=O)c1F (stereo not drawn) [Example 54, 2′-(2,6-difluoro-3,5-dimethoxyphenyl)-6′-[1-(1,1-dioxidotetrahydro-3-thienyl)-3-methyl-1H-pyrazol-4-yl]-1′,2′-dihydro-3′H-spiro[cyclopropane-1,4′-[2,7]naphthyridin]-3′-one]
FGFR1/FGFR3 IC50 ratio (FGFR3 enzyme; pre-incubated for 4 hours): >5
FGFR4/FGFR3 IC50 ratio (FGFR3 enzyme; pre-incubated for 4 hours): >1
pIC50 (FGFR3 enzyme; pre-incubated for 4 hours): > 8.00
IC50 (FGFR1; pre-incubated for 4 hours): 30 to 200 nM
pIC50 (FGFR4; pre-incubated for 4 hours): 7.52 to 8.00
pIC50 (FGFR2; pre-incubated for 4 hours): > 8.00

COc1cc(OC)c(F)c(N2Cc3cnc(-c4cncc(Cl)c4)cc3C3(CC3)C2=O)c1F [Example 11, 6′-(5-chloropyridin-3-yl)-2′-(2,6-difluoro-3,5-dimethoxyphenyl)-1′H-spiro[cyclopropane-1,4′-[2,7]naphthyridin]-3′(2′H)-one]
FGFR1/FGFR3 IC50 ratio (FGFR3 enzyme; pre-incubated for 4 hours): >1
pIC50 (FGFR3 enzyme; [1]): 6.70 to 7.52
pIC50 (FGFR3 enzyme; pre-incubated for 4 hours): < 6.70
pIC50 (FGFR1; [1]): < 6.70
pIC50 (FGFR1; pre-incubated for 4 hours): < 6.70
FGFR1/FGFR4 IC50 ratio (FGFR4; [1]): >50
FGFR2/FGFR4 IC50 ratio (FGFR4; [1]): >20
FGFR3/FGFR4 IC50 ratio (FGFR4; [1]): >25
FGFR1/FGFR4 IC50 ratio (FGFR4; pre-incubated for 4 hours): >25
FGFR2/FGFR4 IC50 ratio (FGFR4; pre-incubated for 4 hours): >25
FGFR3/FGFR4 IC50 ratio (FGFR4; pre-incubated for 4 hours): >10
pIC50 (FGFR4; [1]): 7.52 to 8.00
pIC50 (FGFR4; pre-incubated for 4 hours): 7.52 to 8.00
pIC50 (FGFR2; [1]): < 6.70
pIC50 (FGFR2; pre-incubated for 4 hours): < 6.70

COc1cc(OC)c(F)c(N2Cc3cnc(-c4cn(C)nc4C)cc3N(C[C@H]3CCOC3)C2=O)c1F [Example 108, (R)-3-(2,6-difluoro-3,5-dimethoxyphenyl)-7-(1,3-dimethyl-1H-pyrazol-4-yl)-1-((tetrahydrofuran-3-yl)methyl)-3,4-dihydropyrido[4,3-d]pyrimidin-2(1H)-one]
FGFR1/FGFR3 IC50 ratio (FGFR3 enzyme; pre-incubated for 4 hours): >3
FGFR4/FGFR3 IC50 ratio (FGFR3 enzyme; pre-incubated for 4 hours): >3
pIC50 (FGFR3 enzyme; pre-incubated for 4 hours): 7.52 to 8.00
IC50 (FGFR1; pre-incubated for 4 hours): 30 to 200 nM
pIC50 (FGFR4; pre-incubated for 4 hours): 6.70 to 7.52
pIC50 (FGFR2; pre-incubated for 4 hours): 7.52 to 8.00

COc1cc(OC)c(F)c(N2Cc3cnc(-c4cn(C)nc4C)cc3N(Cc3cnn(CC#N)c3)C2=O)c1F [Example 125, 2-(4-((3-(2,6-difluoro-3,5-dimethoxyphenyl)-7-(1,3-dimethyl-1H-pyrazol-4-yl)-2-oxo-3,4-dihydropyrido[4,3-d]pyrimidin-1(2H)-yl)methyl)-1H-pyrazol-1-yl)acetonitrile]
FGFR1/FGFR3 IC50 ratio (FGFR3 enzyme; pre-incubated for 4 hours): >5
FGFR4/FGFR3 IC50 ratio (FGFR3 enzyme; pre-incubated for 4 hours): >5
pIC50 (FGFR3 enzyme; pre-incubated for 4 hours): 7.52 to 8.00
IC50 (FGFR1; pre-incubated for 4 hours): 30 to 200 nM
pIC50 (FGFR4; pre-incubated for 4 hours): 6.70 to 7.52
pIC50 (FGFR2; pre-incubated for 4 hours): > 8.00

COc1cc(OC)c(F)c(N2Cc3cnc(-c4cc(N)cnc4C)cc3C3(CC3)C2=O)c1F [Example 7, 6′-(5-amino-2-methylpyridin-3-yl)-2′-(2,6-difluoro-3,5-dimethoxyphenyl)-1′H-spiro[cyclopropane-1,4′-[2,7]naphthyridin]-3′(2′H)-one]
FGFR1/FGFR3 IC50 ratio (FGFR3 enzyme; pre-incubated for 4 hours): >1
pIC50 (FGFR3 enzyme; [1]): < 6.70
pIC50 (FGFR3 enzyme; pre-incubated for 4 hours): < 6.70
pIC50 (FGFR1; [1]): < 6.70
pIC50 (FGFR1; pre-incubated for 4 hours): < 6.70
FGFR1/FGFR4 IC50 ratio (FGFR4; [1]): >25
FGFR2/FGFR4 IC50 ratio (FGFR4; [1]): >10
FGFR3/FGFR4 IC50 ratio (FGFR4; [1]): >10
FGFR1/FGFR4 IC50 ratio (FGFR4; pre-incubated for 4 hours): >50
FGFR2/FGFR4 IC50 ratio (FGFR4; pre-incubated for 4 hours): >25
FGFR3/FGFR4 IC50 ratio (FGFR4; pre-incubated for 4 hours): >25
pIC50 (FGFR4; [1]): 6.70 to 7.52
pIC50 (FGFR4; pre-incubated for 4 hours): 6.70 to 7.52
pIC50 (FGFR2; [1]): < 6.70
pIC50 (FGFR2; pre-incubated for 4 hours): < 6.70

COc1cc(OC)c(F)c(N2Cc3cnc(-c4cnn(CCC5CCN(S(C)(=O)=O)CC5)c4)cc3C3(CC3)C2=O)c1F [Example 148, 2′-(2,6-difluoro-3,5-dimethoxyphenyl)-6′-(1-(2-(1-(methylsulfonyl)piperidin-4-yl)ethyl)-1H-pyrazol-4-yl)-1′H-spiro[cyclopropane-1,4′-[2,7]naphthyridin]-3′(2′H)-one]
FGFR1/FGFR3 IC50 ratio (FGFR3 enzyme; pre-incubated for 4 hours): >10
FGFR4/FGFR3 IC50 ratio (FGFR3 enzyme; pre-incubated for 4 hours): >3
pIC50 (FGFR3 enzyme; pre-incubated for 4 hours): > 8.00
IC50 (FGFR1; pre-incubated for 4 hours): 30 to 200 nM
pIC50 (FGFR4; pre-incubated for 4 hours): 7.52 to 8.00
pIC50 (FGFR2; pre-incubated for 4 hours): 7.52 to 8.00

COc1cc(OC)c(F)c(N2Cc3cnc(-c4cn(C)nc4C)cc3N(c3ccc4ncsc4c3)C2=O)c1F [Example 41, 1-(1,3-benzothiazol-6-yl)-3-(2,6-difluoro-3,5-dimethoxyphenyl)-7-(1,3-dimethyl-1H-pyrazol-4-yl)-3,4-dihydropyrido[4,3-d]pyrimidin-2(1H)-one]
FGFR1/FGFR3 IC50 ratio (FGFR3 enzyme; pre-incubated for 4 hours): >1
FGFR4/FGFR3 IC50 ratio (FGFR3 enzyme; pre-incubated for 4 hours): >5
pIC50 (FGFR3 enzyme; pre-incubated for 4 hours): 7.52 to 8.00
IC50 (FGFR1; pre-incubated for 4 hours): 30 to 200 nM
pIC50 (FGFR4; pre-incubated for 4 hours): 6.70 to 7.52
pIC50 (FGFR2; pre-incubated for 4 hours): 7.52 to 8.00

COc1cc(OC)c(F)c(N2Cc3cnc(-c4cn(C)nc4C)cc3C3(CC3)C2=O)c1F [Example 21, 2′-(2,6-difluoro-3,5-dimethoxyphenyl)-6′-(1,3-dimethyl-1H-pyrazol-4-yl)-1′,2′-dihydro-3′H-spiro[cyclopropane-1,4′-[2,7]naphthyridin]-3′-one]
FGFR1/FGFR3 IC50 ratio (FGFR3 enzyme; pre-incubated for 4 hours): >5
pIC50 (FGFR3 enzyme; pre-incubated for 4 hours): > 8.00
IC50 (FGFR1; pre-incubated for 4 hours): 10 to 30 nM
pIC50 (FGFR4; pre-incubated for 4 hours): 7.52 to 8.00
pIC50 (FGFR2; pre-incubated for 4 hours): > 8.00

COC(=O)Nc1ccc(N2C(=O)N(c3c(F)c(OC)cc(OC)c3F)Cc3cnc(-c4cn(C)nc4C)cc32)cc1 [Example 123, Methyl 4-(3-(2,6-difluoro-3,5-dimethoxyphenyl)-7-(1,3-dimethyl-1H-pyrazol-4-yl)-2-oxo-3,4-dihydropyrido[4,3-d]pyrimidin-1(2H)-yl)phenylcarbamate]
FGFR1/FGFR3 IC50 ratio (FGFR3 enzyme; pre-incubated for 4 hours): >5
FGFR4/FGFR3 IC50 ratio (FGFR3 enzyme; pre-incubated for 4 hours): >3
pIC50 (FGFR3 enzyme; pre-incubated for 4 hours): > 8.00
IC50 (FGFR1; pre-incubated for 4 hours): 30 to 200 nM
pIC50 (FGFR4; pre-incubated for 4 hours): 7.52 to 8.00
pIC50 (FGFR2; pre-incubated for 4 hours): > 8.00

CNS(=O)(=O)c1cccc(N2C(=O)N(c3c(F)c(OC)cc(OC)c3F)Cc3cnc(-c4cn(C)nc4C)cc32)c1 [Example 111, 3-(3-(2,6-difluoro-3,5-dimethoxyphenyl)-7-(1,3-dimethy-1H-pyrazol-4-yl)-2-oxo-3,4-dihydropyrido[4,3-d]pyrimidin-1(2H)-yl)-N-methylbenzenesulfonamide]
FGFR1/FGFR3 IC50 ratio (FGFR3 enzyme; pre-incubated for 4 hours): >3
FGFR4/FGFR3 IC50 ratio (FGFR3 enzyme; pre-incubated for 4 hours): >5
pIC50 (FGFR3 enzyme; pre-incubated for 4 hours): > 8.00
IC50 (FGFR1; pre-incubated for 4 hours): 10 to 30 nM
pIC50 (FGFR4; pre-incubated for 4 hours): 6.70 to 7.52
pIC50 (FGFR2; pre-incubated for 4 hours): > 8.00

COc1cc(OC)c(F)c(N2Cc3cnc(-c4nn(C)cc4C#N)cc3C3(CC3)C2=O)c1F [Example 172, 3-(2′-(2,6-difluoro-3,5-dimethoxyphenyl)-3′-oxo-2′,3′-dihydro-1′H-spiro[cyclopropane-1,4′-[2,7]naphthyridine]-6′-yl)-1-methyl-1H-pyrazole-4-carbonitrile]
pIC50 (FGFR3 enzyme; pre-incubated for 4 hours): < 6.70
pIC50 (FGFR1; pre-incubated for 4 hours): < 6.70
FGFR1/FGFR4 IC50 ratio (FGFR4; pre-incubated for 4 hours): >50
FGFR2/FGFR4 IC50 ratio (FGFR4; pre-incubated for 4 hours): >25
FGFR3/FGFR4 IC50 ratio (FGFR4; pre-incubated for 4 hours): >10
pIC50 (FGFR4; pre-incubated for 4 hours): 7.52 to 8.00
pIC50 (FGFR2; pre-incubated for 4 hours): < 6.70
